Results as given in patent publication US20250049831A1, “ANTIVIRAL USE OF BISE[…], AND BISEPOXYLIGNAN COMPOSITION AND PREPARATION OF BISE[…]” (priority 2021, published 2025).

How the values were obtained:
[1] = tested on: COVID-19 virus Delta variant; type: cell-based
[2] = tested on: COVID-19 virus Beta variant; type: cell-based

With `COc1cc(O)cc(C2OCC3C(c4ccc(OC5OC(CO)C(O)C(O)C5O)c(OC)c4)OCC23)c1` (centres unmarked) [compound 1] the “COVID-19 Delta virus SI” value [1] was 7.14 and the “COVID-19 Beta virus SI” value [2] was 7.64.

For `COc1ccc([C@H]2OC[C@H]3[C@@H]2CO[C@H]3c2ccc(O[C@@H]3O[C@H](CO)[C@@H](O)[C@H](O)[C@H]3O)c(OC)c2)cc1OC` [compound 2], the “COVID-19 Delta virus SI” value [1] was 6.86 and the “COVID-19 Beta virus SI” value [2] was 7.10.

In the case of `COc1ccc(C2OCC3C(c4ccc(OC)c(OC)c4)OCC23)cc1O` (centres unmarked) [compound 3], the “COVID-19 Delta virus SI” value [1] is reported as 2.11 and the “COVID-19 Beta virus SI” value [2] is reported as 2.12.

In the case of `COc1ccc(C2OCC3C(c4ccc(OC(=O)C(C)c5ccc(CC(C)C)cc5)c(OC)c4)OCC23)cc1OC` (centres unmarked) [compound 6], the “COVID-19 Delta virus SI” value [1] is reported as 1.79 and the “COVID-19 Beta virus SI” value [2] is reported as 3.43.
